This note sets out measurements from patent publication US20260364184A1, “COMPOUND BASED ON OXOISOINDOLINYL-SUBSTITUTED TETRAHYDROPYRIMIDINE-DIONE AND USE THEREOF” (GLUETACS THERAPEUTICS (SHANGHAI) CO., LTD., priority 2023, published 2026).

As usually defined, the inhibition is the relative decrease from the control value, in per cent.

In assay [1] the test system is Human gastric cancer cell line MGC803. The experiment in a line: Inhibition of MGC803 tumor cell proliferation (CellTiter luminescent viability). It counts as cell-based. Particulars: Table IA1, IRAK4 inhibitor-based compounds; MGC803, 96 hours; read-out: Inhibitory activity (IC50, nM) on tumor cell proliferation, MGC803. The method in brief:
(§1)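 Cells are seeded in 96-well plates, cultured at 37 °C, 5% CO2, and treated next day with 5-fold serial compound dilutions (stock series from 2000 μM; 0.5 μL into 100 μL medium). Viability is read by CellTiter-Meiluncell luminescence after the set exposure, and IC50 is taken from growth-inhibition curves.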

The subject of assay [2] is Human large cell immunoblastic lymphoma cell line SR. The experiment in a line: Inhibition of SR cell proliferation (CellTiter luminescent viability). It counts as cell-based. The conditions noted are these: Table IA1, IRAK4 inhibitor-based, 96 hours, read-out: Inhibitory activity (IC50, nM) on tumor cell proliferation, SR. The method in brief:
as §1

The next assay has as its system JEKO-1. The experiment in a line: Inhibition of JEKO-1 cell proliferation (CellTiter luminescent viability). It counts as cell-based, human. Particulars: Table IA1, IRAK4 inhibitor-based; JEKO-1, 96 hours; read-out: Inhibitory activity (IC50, nM) on tumor cell proliferation, JEKO-1. The method in brief:
as §1

The test system of assay [3] is Human diffuse large B-cell lymphoma cell line (TMD8). The experiment in a line: Inhibition of TMD8 cell proliferation (CellTiter luminescent viability). The conditions noted are these: Homo sapiens, TMD8, 96 h, Table IF1, AR inhibitor-based; for inhibition at 0.01 µM: TMD8, 10 nM, read-out: Inhibition Rate at 10 nM (%); for inhibition at 0.5 µM: TMD8, 500 nM, read-out: Inhibition Rate at 500 nM (%). It counts as cell-based.

The subject of assay [4] is Human Acute T Lymphoblastic Leukemia Cells (Molt-4). The experiment in a line: Inhibition of Molt-4 cell proliferation (CellTiter luminescent viability). It counts as cell-based. Particulars: Homo sapiens, MOLT-4, 96 h, Table IA2, IRAK4 inhibitor-based, 96 hours; for inhibition at 0.01 µM: Molt-4, 10 nM, read-out: Inhibition Rate at 10 nM (%); for inhibition at 0.5 µM: Molt-4, 500 nM, read-out: Inhibition Rate at 500 nM (%).

Assay [5] relates to Human myeloid monocytic leukemia cell line (MV-4-11). The experiment in a line: Inhibition of MV-4-11 cell proliferation (CellTiter luminescent viability). The conditions noted are these: Homo sapiens, MV4-11, Table IA3, IRAK4 inhibitor-based, 96 hours; for inhibition at 0.01 µM: MV-4-11, 10 nM, read-out: Inhibition Rate at 10 nM (%); for inhibition at 0.5 µM: MV-4-11, 500 nM, read-out: Inhibition Rate at 500 nM (%). It counts as cell-based. The method in brief: as §1

In assay [6] the test system is Human acute lymphocytic leukemia T lymphocytes cell line (CCRF-CEM). The experiment in a line: Inhibition of CCRF-CEM cell proliferation (CellTiter luminescent viability). It counts as cell-based. Particulars: Homo sapiens, 96 h, Table IF2, AR inhibitor-based; for inhibition at 0.01 µM: 10 nM, read-out: Inhibition Rate at 10 nM (%); for inhibition at 0.5 µM: 500 nM, read-out: Inhibition Rate at 500 nM (%).

In the case of `O=C1CCN(N2Cc3cc(CN4CCC(n5cc(NC(=O)c6coc(-c7ccnc(NCC8CC8)c7)n6)c(C(F)F)n5)CC4)ccc3C2=O)C(=O)N1` [GT-04951, 2-(2-((cyclopropylmethyl)amino)pyridin-4-yl)-N-(3-(difluoromethyl)-1-(1-((2-(2,4-dioxotetrahydropyrimidin-1(2H)-yl)-1-oxoisoindolin-5-yl)methyl)piperidin-4-yl)-1H-pyrazol-4-yl) oxazole-4-carboxamide], the IC50 in assay [1] is 100 to 300 nM; in assay [2] it was 500 to 1000 nM; in the assay with JEKO-1, 100 to 300 nM.
As for `O=C1CCN(N2Cc3cc(CN4CCC(n5cc(NC(=O)c6cnn7ccc(N8C[C@H]9C[C@@H]8CO9)nc67)c(C(F)F)n5)CC4)ccc3C2=O)C(=O)N1` [GT-05028, 5-((1R,4R)-2-oxa-5-azabicyclo[2.2.1]heptan-5-yl)-N-(3-(difluoromethyl)-1-(1-((2-(2,4-dioxotetrahydropyrimidin-1(2H)-yl)-1-oxoisoindolin-5-yl)methyl)piperidin-4-yl)-1H-pyrazol-4-yl)pyrazolo[1,5-a]pyrimidine-3-carboxamide], the IC50 is 500 to 1000 nM in assay [1], 500 to 1000 nM in assay [2] and 300 to 500 nM in the assay with JEKO-1.
As for `N#Cc1ccc(O[C@H]2CC[C@H](NC(=O)c3ccc(N4CCC(CN5C[C@@H]6C[C@H]5CN6c5ccc6c(c5)C(=O)N(N5CCC(=O)NC5=O)C6=O)CC4)nn3)CC2)cc1Cl` [GT-05226, N-((1r,4r)-4-(3-chloro-4-cyanophenoxy)cyclohexyl)-6-(4-(((1S,4S)-5-(2-(2,4-dioxotetrahydropyrimidin-1(2H)-yl)-1,3-dioxoisoindolin-5-yl)-2,5-diazabicyclo[2.2.1]heptan-2-yl)methyl)piperidin-1-yl)pyridazine-3-carboxamide], in assay [3], the inhibition at 0.01 µM fell in the range of 10 to 15% and the inhibition at 0.5 µM was in the range of 25 to 30%.
`O=C1CCN(N2C(=O)c3cccc(N4CCC(CN5CCC(n6cc(NC(=O)c7cnn8ccc(N9C[C@H]%10C[C@@H]9CO%10)nc78)c(C(F)F)n6)CC5)CC4)c3C2=O)C(=O)N1` [GT-05285, 5-((1R,4R)-2-oxa-5-azabicyclo[2.2.1]heptan-5-yl)-N-(3-(difluoromethyl)-1-(1-((1-(2-(2,4-dioxotetrahydropyrimidin-1(2H)-yl)-1,3-dioxoisoindolin-4-yl)piperidin-4-yl)methyl)piperidin-4-yl)-1H-pyrazol-4-yl)pyrazolo[1,5-a]pyrimidine-3-carboxamide]: in assay [4], the inhibition at 0.01 µM was -5 to 0% and the inhibition at 0.5 µM lay in the range of 80 to 100%. Further, in assay [5], the inhibition at 0.01 µM fell in the range of 45 to 50% and the inhibition at 0.5 µM lay within 80 to 100%.
For `O=C1CCN(N2Cc3cc(CN4CCC(n5cc(NC(=O)c6cnn7ccc(N8CCOCC8)nc67)c(C(F)F)n5)CC4)ccc3C2=O)C(=O)N1` [GT-05749], in assay [4], the inhibition at 0.01 µM was in the range of 7 to 10% and the inhibition at 0.5 µM lay in the range of 60 to 80%. Besides, in assay [5], the inhibition at 0.01 µM was 0 to 10% and the inhibition at 0.5 µM fell in the range of 80 to 100%.
As to `N#Cc1ccc(O[C@H]2CC[C@H](NC(=O)c3ccc(N4CCC(CN5CC6CCC5CN6c5ccc6c(c5)C(=O)N(N5CCC(=O)NC5=O)C6=O)CC4)nn3)CC2)cc1Cl` (stereo partly drawn) [GT-05832, N-((1r,4r)-4-(3-chloro-4-cyanophenoxy)cyclohexyl)-6-(4-((5-(2-(2,4-dioxotetrahydropyrimidin-1(2H)-yl)-1,3-dioxoisoindolin-5-yl)-2,5-diazabicyclo[2.2.2]octan-2-yl)methyl)piperidin-1-yl)pyridazine-3-carboxamide], in assay [6], the inhibition at 0.01 µM was -5 to 0% and the inhibition at 0.5 µM was in the range of 30 to 40%. Besides, in assay [3], the inhibition at 0.01 µM lay in the range of 10 to 15% and the inhibition at 0.5 µM fell in the range of 40 to 60%.
In the same order, the values of `CC1(C)[C@H](NC(=O)c2ccc(N3CCC(CN4CC5CCC4CN5c4ccc5c(c4)C(=O)N(N4CCC(=O)NC4=O)C5=O)CC3)nc2)C(C)(C)[C@H]1Oc1ccc(C#N)c(Cl)c1` (stereo partly drawn) [GT-05834, N-((1r,3r)-3-(3-chloro-4-cyanophenoxy)-2,2,4,4-tetramethylcyclobutyl)-6-(4-((5-(2-(2,4-dioxotetrahydropyrimidin-1(2H)-yl)-1,3-dioxoisoindolin-5-yl)-2,5-diazabicyclo[2.2.2]octan-2-yl)methyl)piperidin-1-yl)nicotinamide] are 10 to 15%, 40 to 60%, 15 to 20% and 40 to 60%.
